Measurements as given in ChEMBL document CHEMBL2157927, “Imidazotriazinone compounds: patent highlight” (ACS Med Chem Lett, 2012).

Tests used:
[1] = Selectivity ratio of IC50 for PDE1B to IC50 for PDE9
[2] = Selectivity ratio of IC50 for PDE1A to IC50 for PDE9
[3] = Inhibition of PDE9 by spectrophotometric analysis

| SMILES | Ratio IC50 [1] | Ratio IC50 [2] | IC50 [3] [nM] |
| --- | --- | --- | --- |
| C[C@@H]1CN(Cc2cccc(F)c2)C[C@H]1c1nn2c(C3CCOCC3)ncc2c(=O)[nH]1 | > 1000 | > 1000 | < 1000 |
| C[C@@H]1CN(Cc2ncccn2)C[C@H]1c1nn2c(C3CCOCC3)ncc2c(=O)[nH]1 | – | – | > 10000 |
| C[C@@H]1CN(Cc2cnccn2)C[C@H]1c1nn2c(C3CCOCC3)ncc2c(=O)[nH]1 | – | – | 1000 |
